Like-named read-outs stand apart in the source and are kept apart here.
Columns and labels:
HUVECs = experiment: Tube formation (tubulogenesis) assay in HUVECs, 18 h; assay type: cell-based, human; settings: Homo sapiens, HUVEC, 18 h, HUVEC
Summary of the method: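 HUVECs (passage 1–5) seeded on reduced-growth-factor basement membrane and exposed to compounds overnight at 37°C, 5% CO2, in 2× maintenance medium with 12.5 ng/mL VEGF; 0.5% DMSO vehicle. Calcein AM-stained tube networks imaged and analysed; vehicle-normalized readouts fit to four-parameter logistic, POD set at one SD of vehicle means.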

[1] = system: iPSC-CMs, iPSC-ECs and HUVECs phenotypes; experiment: ToxPi 2.0 integration of POD values and physicochemical descriptors; set-up: species or system human; settings: ToxPi-scaled (0-1) score; for huvec.cyto.24hr / huvec.mito.24hr / huvec.mitoint.24hr / huvec.nma.24hr / huvec.tc.24hr / huvec.mtl.18hr / huvec.tlps.18hr / huvec.tta.18hr / huvec.ttl.18hr: HUVECs; for huvec.mtl.18hr / huvec.tlps.18hr / huvec.tta.18hr / huvec.ttl.18hr / endo.mtl.18hr / endo.tlps.18hr / endo.tta.18hr / endo.ttl.18hr: tube formation; for cm.amp.avg.90min / cm.amp.cv.90min / cm.bpm.90min / cm.cam.90min / cm.decay.rise.90min / cm.mii.90min / cm.mito.90min / cm.spacing.cv.90min / cm.tc.90min / cm.amp.avg.24hrs / cm.amp.cv.24hrs / cm.bpm.24hrs / cm.cam.24hrs / cm.decay.rise.24hrs / cm.mii.24hrs / cm.mito.24hrs / cm.spacing.cv.24hrs / cm.tc.24hrs: iPSC cardiomyocytes; for endo.cyto.24hr / endo.mito.24hr / endo.mitoint.24hr / endo.nma.24hr / endo.tc.24hr / endo.mtl.18hr / endo.tlps.18hr / endo.tta.18hr / endo.ttl.18hr: iPSC endothelial cells
Summary of the method: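 Phenotypic readouts in iPSC-cardiomyocytes, iPSC-endothelial cells and HUVECs were normalised to 0.5% DMSO vehicle and fitted to a four-parameter logistic model. POD set at one SD cutoff of vehicle means, with 100 μM assigned when no response. PODs and physicochemical descriptors combined in ToxPi 2.0 scores.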

[2] = tube formation mtl, read-out: POD huvec.mtl.18hr
[3] = tube formation tlps, read-out: POD huvec.tlps.18hr
[4] = tube formation tta, read-out: POD huvec.tta.18hr
[5] = tube formation ttl, read-out: POD huvec.ttl.18hr

Compound	minimal effective concentration (HUVECs; [2]) [µM]	minimal effective concentration (HUVECs; [3]) [µM]	minimal effective concentration (HUVECs; [4]) [µM]	minimal effective concentration (HUVECs; [5]) [µM]	huvec.cyto.24hr [1]	huvec.mito.24hr [1]	huvec.mitoint.24hr [1]	huvec.nma.24hr [1]	huvec.tc.24hr [1]	huvec.mtl.18hr [1]	huvec.tlps.18hr [1]	huvec.tta.18hr [1]	huvec.ttl.18hr [1]	cm.amp.avg.90min [1]	cm.amp.cv.90min [1]	cm.bpm.90min [1]	cm.cam.90min [1]	cm.decay.rise.90min [1]	cm.mii.90min [1]	cm.mito.90min [1]	other results
Clc1ccc(-c2cc(Cl)c(Cl)c(Cl)c2)cc1Cl [PCB 126, 3,3′,4,4′,5-pentachlorobiphenyl]	100	100	100	100	0.3035	0	0	0	0.3035	0	0	0	0	0.3003	0	0.8534	0	1	0	0	cm.spacing.cv.90min [1]: 0; cm.tc.90min [1]: 0; cm.amp.avg.24hrs [1]: 0.3868; cm.amp.cv.24hrs [1]: 0.06292; cm.bpm.24hrs [1]: 0.6773; cm.cam.24hrs [1]: 0.3565; cm.decay.rise.24hrs [1]: 1; cm.mii.24hrs [1]: 0; cm.mito.24hrs [1]: 0.557; cm.spacing.cv.24hrs [1]: 0.3424; cm.tc.24hrs [1]: 0.6297; endo.cyto.24hr [1]: 1; endo.mito.24hr [1]: 1; endo.mitoint.24hr [1]: 0.315; endo.nma.24hr [1]: 0; endo.tc.24hr [1]: 1; endo.mtl.18hr [1]: 0.1325; endo.tlps.18hr [1]: 0.4903; endo.tta.18hr [1]: 0.1238; endo.ttl.18hr [1]: 0.0871
Clc1cc(Cl)c(-c2cc(Cl)c(Cl)cc2Cl)cc1Cl [PCB 153, 2,2′,4,4′,5,5′-hexachlorobiphenyl]	19.8	61.8	8.87	0.13	0.8978	0.5815	0.9487	0.5857	0.8978	0.3619	0.09107	0.4811	1	0.6441	0.2203	0.7602	0.6527	0.5479	0	0.6603	cm.spacing.cv.90min [1]: 0.07557; cm.tc.90min [1]: 0.6003; cm.amp.avg.24hrs [1]: 0; cm.amp.cv.24hrs [1]: 0.175; cm.bpm.24hrs [1]: 0.4569; cm.cam.24hrs [1]: 0.2888; cm.decay.rise.24hrs [1]: 0.5277; cm.mii.24hrs [1]: 0.2429; cm.mito.24hrs [1]: 0.486; cm.spacing.cv.24hrs [1]: 0.2007; cm.tc.24hrs [1]: 0.5053; endo.cyto.24hr [1]: 0.2934; endo.mito.24hr [1]: 0.2934; endo.mitoint.24hr [1]: 1; endo.nma.24hr [1]: 0.08276; endo.tc.24hr [1]: 0.1249; endo.mtl.18hr [1]: 1; endo.tlps.18hr [1]: 0.6326; endo.tta.18hr [1]: 0.297; endo.ttl.18hr [1]: 0.4748

— article PMC7377239, “Cardiovascular Effects of Polychlorinated Biphenyls and Their Major Metabolites” (Environmental Health Perspectives, 2020)
